Legend:
[1] = system: rat glioma (C6) cells; assay: Phototoxicity after irradiation at 540±5 nm, cell count 24 h later; assay type: cell-based; conditions: 2 mw/cm^2, up to 2.4 J, compared with Rose Bengal (FIG. 5)
Source text: The cells treated with Rose Bengal or with Rose Bengal acetate as described above were submitted to irradiation at 540±5 nm by a Xe 75 W lamp and an interference filter.
Irradiation was realised with a power of 2 mw/cm^2 for various times until the administration of a maximum dose of 2.4 J, in accordance with the protocols normally used in tests of phototoxicity. The irradiation was effected in HBSS buffer (Hank's Balanced Salt Solution, J. H. Hanks and R. E. Wallace, Proc. Natl. Exp. Biol. Med 71, 196, 1949) in the absence of the drug in the culture medium to avoid secondary effects. Twenty-four hours after irradiation the cells adhering to the slide on which they had been grown were counted. The expression of phototoxicity was defined as the ratio between the number of cells present after the treatment and those counted on the untreated controls. […] This effect relates directly to the quantity of fluorescent substance with photosensitisation activity produced by the enzyme activity, evaluated as fluorescence intensity at 580 nm (FIG. 4).

[2] = system: POGB cells (bronchial microcytoma); assay: Photosensitizer accumulation in drug-resistant versus sensitive POGB cells; assay type: cell-based, human; conditions: Rose Bengal acetate 5×10^-5 to 10^-7 M, Photofrin 10^-5 M, fluorescence intensity
Description: (§1) Tests were also performed on cell lines derived from human tumours: POGB, from bronchial microcytoma, and IGROV, from ovarian carcinoma. In particular, for each line a comparison was made between the cells sensitive and resistant to chemotherapeutic agents. […] Results related to Rose Bengal treatment were compared with those obtained with Photofrin®, a well-establishes photosensitizer.
(§2) The cells were treated with Rose Bengal acetate at doses between 5×10^-5 and 10^-7 M, and with 10^-5 M Photofrin®. The intracellular accumulation of photosensitizer was evaluated in terms of fluorescence intensity. Giving a value of 100 to the photosensitizer amount present in each sensitive cell line, the amount of photosensitizer retained in the corresponding resistant cell line is 100% and 85% for Photofrin and 170% and 120% for Rose Bengal, in IGROV and POGB respectively. A more evident difference of the accumulation capacity between Photofrin and Rose Bengal can be observed in the case of B16 cells, a line derived from mouse melanoma. In this case the amount of Photofrin® accumulated in resistant cells is about 65% of that in sensitive ones, while the amount of Rose Bengal is about 120%.

[3] = Rose Bengal in blood samples of treated mice; assay type: in vivo; conditions: Swiss mice treated with 8 mg/kg
Description: Considering the possible systemic use of Rose Bengal acetate, the effect was evaluated of the serum esterase activity on the hydrolysis kinetics of the fluorogenic substrate. The esterase activity of the blood can induce an extracellular hydrolysis of Rose Bengal acetate. The kinetics, however, of this hydrolysis is slow enough to permit the cellular compartment to accumulate and hydrolyse the Rose Bengal acetate according to the intracellular esterase activity. In any case the hydrolysed Rose Bengal is quickly eliminated from the blood.

[4] = system: IGROV cells (ovarian carcinoma); assay: Photosensitizer accumulation in drug-resistant versus sensitive IGROV cells; assay type: cell-based, human; conditions: Rose Bengal acetate 5×10^-5 to 10^-7 M, Photofrin 10^-5 M, fluorescence intensity
Description: as §1, §2

[5] = system: normal fibroblast line and sarcoma-derived cell line of Galliera rats; assay: Intracellular drug accumulation, normal fibroblasts versus sarcoma-derived cells; assay type: cell-based, rat
Description: A comparison of intracellular drug accumulation was made between normal and tumour cells. As a model, a normal fibroblast line from embryos (6-10 days) of Galliera strain rats, and a stabilised cell line derived from sarcoma spontaneously growing in syngeneic Galliera rats, were used. After incubation with Rose Bengal acetate at a concentration of 5×10^-6 M for 2 hours, a ratio of intracellular photosensitizer concentration of about 16 was measured between normal and transformed cells, in terms of fluorescence intensity at 580 nm. The ratio of the esterase activity in the two cell lines was found less than the ratio shown by the photosensitizer: this can be explained by the fact that the Rose Bengal produced by the enzyme activity is a polar compound. It must be considered that in this form Rose Bengal requires an active transport mechanism to be released (E. Prosperi, A. C. Croce et al. Cytometry, 7, 70-75, 1986), and that the tumour cells are characterised by an impaired metabolic condition (J. Szollosi, P. Kertai et al. J. Histochem. Cytochem. 29, 503-510, 1982), that enhances the photosensitizer accumulation.
The same cell lines, treated with the most commonly used photosensitizer, Photofrin®, at the concentration of 2×10^-5 M for a time of 2 hours yielded a ratio value of about 8 (FIG. 6).

[6] = system: lymphocytes and granulocytes; assay: Hydrolysis activity in white blood cells on smears; assay type: cell-based
[7] = system: rat glioma (C6) cells; assay: Intracellular accumulation and hydrolysis kinetics in C6 cell cultures; assay type: cell-based
Description: Evaluations of the kinetics of intracellular accumulation of Rose Bengal acetate were performed on cultures of an established cell line of rat glioma (C6) which grows as a monolayer. This cell line is widely used for pharmaco-kinetic studies of fluorescent substances with photosensitisation activity by virtue of its rapid proliferation activity and the possibility of modifying the physiological activities of the cells.
It is particularly important that, principally in short-term treatments, a continuous increase of intracellular Rose Bengal is recorded in the cells treated with the acetylated species, even when the cells are transferred into a medium devoid of this substance. This can easily be interpreted in terms of the balance between the processes of incorporation and hydrolysis. Since the process of incorporation is rapider than that of hydrolysis, inside the cells an accumulation is created of hydrolysable substance on which the enzyme can continue to effect its action through time.
Further, it is interesting to note that the kinetics of hydrolysis of Rose Bengal acetate is accelerated by the cellular environment: the Km passes from about 10^-3 M in conditions of hydrolysis in solution to about 10^-6 M in the cells.

[8] = system: purified esterase enzyme of pig liver; assay: Enzyme hydrolysis by purified pig liver esterase, followed fluorometrically; assay type: biochemical; conditions: hydrolysis in solution, phosphate buffer 0.2 M pH 6.85, 20° C., esterase 25 U/ml; read-out: enzyme hydrolysis constant Km
Description: To the solution of Rose Bengal acetate 3×10^-5 M in phosphate buffer 0.2 M (pH 6.85) was added the purified esterase enzyme of pig liver (Sigma Chem, Co., GB) at the final concentration of 25 U/ml. The reaction was performed at room temperature (20° C.) and the formation of the product was measured fluorometrically (excitation 525 nm, emission 565 nm). In a second group of experiments, to the reaction solution was added human albumin (Sigma Chem. Co, GB) at the concentration of 0.1 mg/ml, better to simulate the conditions of hydrophobicity to be met in the cells. In these conditions, the appearance of the fluorescence was accelerated.
The kinetics of hydrolysis was followed by determining the intensity of fluorescence at 565 nm corresponding to the peak of emission of Rose Bengal. Examples of curves of hydrolysis kinetics are shown in FIG. 3 in which the curve (a) represents the intensity of fluorescence in time of a solution of Rose Bengal acetate subjected to hydrolysis in the presence of albumin with esterase, and the curve (b) represent the intensity of fluorescence of the solution of Rose Bengal acetate with albumin, in the absence of esterase, at the concentration of 3×10^-5 M.

[9] = system: B16 cells (mouse melanoma); assay: Photosensitizer accumulation in drug-resistant versus sensitive B16 cells; assay type: cell-based
Description: as §2

[10] = system: rat glioma (C6) cells; assay: Cellular vitality tests (trypan blue and fluorescein diacetate methods); assay type: cell-based; conditions: incubation for 4 h at concentrations up to 1×10^-4 M, no irradiation
Source text: The hydrophobicity of the intracellular environment would therefore seem to create the structural condition that favours the action of the enzyme. […] The finding relative to Rose Bengal agrees with the literature (R. P. G. Feenstra and S. C. G. Tseng, Ophthalmology, 99 605, 1992).

CC(=O)Oc1c(I)cc2c(-c3c(Cl)c(Cl)c(Cl)c(Cl)c3C(=O)O)c3cc(I)c(=O)c(I)c-3oc2c1I [Rose Bengal acetate]
phototoxicity (cell survival) [1]: strong phototoxic effect | amount of photosensitizer retained in resistant cell line (sensitive line = 100) [2]: 120% | Rose Bengal in the blood [3]: do not present appreciable quantities | amount of photosensitizer retained in resistant cell line (sensitive line = 100) [4]: 170% | ratio of intracellular photosensitizer concentration between normal and transformed cells ([5]; 2 h, 5 µM): about 16 | hydrolysis activity in lymphocytes, less than in granulocytes [6]: 40% | Km [7]: ~1 µM | Km [8]: ~1000 µM | amount accumulated in resistant cells relative to sensitive ones [9]: about 120% | cell mortality [10]: no significant cell mortality

O=C(O)c1c(Cl)c(Cl)c(Cl)c(Cl)c1-c1c2cc(I)c(=O)c(I)c-2oc2c(I)c(O)c(I)cc12 [Rose Bengal, reference compound]
cell mortality [10]: no significant cell mortality

CC(=O)Oc1ccc2c(c1)Oc1cc(OC(C)=O)ccc1C21OC(=O)c2ccccc21 [diacetate fluorescein, reference compound]
Km [8]: 5 µM

Photofrin® [reference compound]
amount of photosensitizer retained in resistant cell line (sensitive line = 100) [2]: 85% | amount of photosensitizer retained in resistant cell line (sensitive line = 100) [4]: 100% | ratio of intracellular photosensitizer concentration between normal and transformed cells ([5]; 2×10^-5 M for 2 hours): about 8 | amount accumulated in resistant cells relative to sensitive ones [9]: about 65%

From US6036941A, “Fluorogenic substrates for diagnosis and photodynamic treatment of tumors” (Consiglio Nazionale Delle Ricerche, priority 1995, dated 2000)
